Assay results taken from patent US20240199598A1 (MITOIMMUNE THERAPEUTICS INC., priority 2021, published 2024).
Entries after “also recorded” stand apart in the source; their conditions may differ. Read-outs that look alike come from different tables or passages of the source.

What was measured:
[1] = Simulated gastrointestinal fluid solubility test (SGF, FaSSIF, FeSSIF); assay type: physicochemical; conditions: fed state simulated intestinal fluid (FeSSIF), 37 °C, pH 4.98, fessif, thermodynamic from solid
Protocol: As simulated gastrointestinal fluid media (Biorelevant dissolution media) used for environment assessment in the simulated gastrointestinal tract, simulated gastric fluid (SGF), fasted state simulated intestinal fluid (FaSSIF), and fed state simulated intestinal fluid (FeSSIF) were used, and a detailed description of the test is as follows.
All vials were placed on a hot plate stirrer and maintained while stirring at 37° C. and 700 rpm. […] After mixing at 37° C. for 24 hours, 300 μL of the suspension was separated from each vial and analyzed.
The analysis sample was centrifuged at 14000 rpm for 5 minutes, and then the supernatant was diluted 10-fold with ACN:H2O (7/3, v/v) and analyzed by ultra-performance liquid chromatography (UPLC).

[2] = Physicochemical stability test of free form and 5 salts (60° C., 40° C./75% humidity, light); conditions: for Final purity: HPLC
Protocol: In the case of a light stability test, the vial was stored in a light stability test chamber while being not closed with a lid, and exposed to a total illuminance of 1.2 million lux-hr. A vial light-shielded with aluminum foil was used as an experimental control (Dark control). For stability assessment, state assessment by visual observation, purity assessment using HPLC, and crystalline form assessment using XRPD were conducted, and results thereof are shown in Table 7. […] In FIGS. 19 to 30, “Light” represents light irradiation condition results.

[3] = Solubility test of sulfate (Crystalline form III) in various solvents; assay type: physicochemical; conditions: thermodynamic from solid
Protocol: First, solvent screening was performed for a study on various crystalline forms.

[4] = Oral administration pharmacokinetic test using mice; conditions: mice, oral

For O=S1(=O)CCN(Cc2cc(NC3CCOCC3)c3[nH]c(-c4ccccc4)cc3c2)CC1 [Sulfate], the solubility at 24 h ([1]; FeSSIF (pH = 4.98), 37° C., after 24 hours, read-out: Solubility) was 130 µg/mL, the solubility at 24 h ([1]; summary Table 9, read-out: Stimulated gastrointestinal fluid solubility, FeSSIF) was 130 µg/mL and the Assay ([2]; 1.2 million lux-hr) was 104.98%. For the same compound, the Purity change ([2]; 1.2 million lux-hr) was “+0.14%”, the XRPD patterns ([2]; 1.2 million lux-hr) was “Pattern 2-I” and the Final purity ([2]; 1.2 million lux-hr) was 99.87%. For the same compound, the Appearance ([2]; 40° C./75% RH, 1 w) was “White powder”, the Assay ([2]; 40° C./75% RH, 1 w) was 109.86% and the Purity change ([2]; 40° C./75% RH, 1 w) was −0.43%. For the same compound, the XRPD patterns ([2]; 40° C./75% RH, 1 w) was “Pattern 2-I”, the Final purity ([2]; 40° C./75% RH, 1 w) was 99.30% and the “Chemical stability (purity change %/1 w), 40° C./75% RH” value ([2]; 40° C./75% RH, 1 w, summary Table 9) was −0.43%. The Appearance ([2]; 60° C., 1 w) was “White powder”, the Assay ([2]; 60° C., 1 w) was 110.59% and the Purity change ([2]; 60° C., 1 w) was “+0.1%”. The XRPD patterns ([2]; 60° C., 1 w) was “Pattern 2-I”, the Final purity ([2]; 60° C., 1 w) was 99.83% and the “Chemical stability (purity change %/1 w), 60° C.” value ([2]; 60° C., 1 w, summary Table 9) was 0.1%. The “Sensitivity to heat, humidity and light conditions (in words)” value ([2]; 60° C., 40° C./75% humidity, 1.2 million lux-hr, listed as sulfate of the compound of Chemical Formula 1) was “sensitive under a humidity condition; also recorded: comparable results to the free form of the compound of Chemical Formula 1 under high-temperature and light stability conditions, except for a humidity condition”, the Assay ([2]; Dark control) was 105.93% and the Purity change ([2]; Dark control) was “+0.02%”. For the same compound, the XRPD patterns ([2]; Dark control) was “Pattern 2-I”, the Final purity ([2]; Dark control) was 99.75% and the “Chemical stability (purity change %/1 w), Light stability” value ([2]; light stability, summary Table 9) was 0.14%. The solubility ([3]; aqueous with cosolvent or surfactant or cyclodextrin, Acetic acid-H2O (1:1), 25° C., read-out: Solubility) was 196000 to 295000 µg/mL, the solubility ([3]; aqueous with cosolvent or surfactant or cyclodextrin, Acetic acid-H2O (1:1), 50° C., read-out: Solubility) was 300000 to 599000 µg/mL and the solubility ([3]; aqueous with cosolvent or surfactant or cyclodextrin, Acetone-H2O (1:2), 25° C., read-out: Solubility) was 9000 to 19000 µg/mL. The solubility ([3]; aqueous with cosolvent or surfactant or cyclodextrin, Acetone-H2O (1:2), 50° C., read-out: Solubility) was 37000 to 75000 µg/mL, the solubility ([3]; aqueous with cosolvent or surfactant or cyclodextrin, MeOH/H2O = 1:1(v/v), 25° C., read-out: Solubility) was 2000 to 3000 µg/mL and the solubility ([3]; aqueous with cosolvent or surfactant or cyclodextrin, MeOH/H2O = 1:1(v/v), 50° C., read-out: Solubility) was 9000 to 19000 µg/mL. For the same compound, the solubility ([3]; aqueous with cosolvent or surfactant or cyclodextrin, in MeOH/H2O (1:1 (v:v)) and acetone/water (1:1 (v/v)), read-out: Solubility (good)) was 5000 to 40000 µg/mL, the solubility ([3]; organic solvent or mixture, 1-Butanol, 25° C., read-out: Solubility) was under 2000 µg/mL and the solubility ([3]; organic solvent or mixture, 1-Butanol, 50° C., read-out: Solubility) was under 2000 µg/mL. The solubility ([3]; organic solvent or mixture, 2-MeTHF, 25° C., read-out: Solubility) was under 2000 µg/mL, the solubility ([3]; organic solvent or mixture, 2-MeTHF, 50° C., read-out: Solubility) was under 2000 µg/mL and the solubility ([3]; organic solvent or mixture, ACN, 25° C., read-out: Solubility) was under 2000 µg/mL. It also gave a solubility ([3]; organic solvent or mixture, ACN, 50° C., read-out: Solubility) of under 2000 µg/mL, a solubility ([3]; organic solvent or mixture, Acetone, 25° C., read-out: Solubility) of under 2000 µg/mL and a solubility ([3]; organic solvent or mixture, Acetone, 50° C., read-out: Solubility) of under 2000 µg/mL. The solubility ([3]; organic solvent or mixture, CHCl3, 25° C., read-out: Solubility) was under 2000 µg/mL, the solubility ([3]; organic solvent or mixture, CHCl3, 50° C., read-out: Solubility) was under 2000 µg/mL and the solubility ([3]; organic solvent or mixture, DMF, 25° C., read-out: Solubility) was 202000 to 302000 µg/mL. For the same compound, the solubility ([3]; organic solvent or mixture, DMF, 50° C., read-out: Solubility) was 304000 to 608000 µg/mL, the solubility ([3]; organic solvent or mixture, DMSO, 25° C., read-out: Solubility) was 158000 to 210000 µg/mL and the solubility ([3]; organic solvent or mixture, DMSO, 50° C., read-out: Solubility) was 301000 to 602000 µg/mL. The solubility ([3]; organic solvent or mixture, EtOAc, 25° C., read-out: Solubility) was under 2000 µg/mL, the solubility ([3]; organic solvent or mixture, EtOAc, 50° C., read-out: Solubility) was under 2000 µg/mL and the solubility ([3]; organic solvent or mixture, EtOH, 25° C., read-out: Solubility) was under 2000 µg/mL. For the same compound, the solubility ([3]; organic solvent or mixture, EtOH, 50° C., read-out: Solubility) was under 2000 µg/mL, the solubility ([3]; organic solvent or mixture, Heptane, 25° C., read-out: Solubility) was under 2000 µg/mL and the solubility ([3]; organic solvent or mixture, Heptane, 50° C., read-out: Solubility) was under 2000 µg/mL. The solubility ([3]; organic solvent or mixture, IPA, 25° C., read-out: Solubility) was under 2000 µg/mL, the solubility ([3]; organic solvent or mixture, IPA, 50° C., read-out: Solubility) was under 2000 µg/mL and the solubility ([3]; organic solvent or mixture, MEK, 25° C., read-out: Solubility) was under 2000 µg/mL. For the same compound, the solubility ([3]; organic solvent or mixture, MEK, 50° C., read-out: Solubility) was under 2000 µg/mL, the solubility ([3]; organic solvent or mixture, MIBK, 25° C., read-out: Solubility) was under 2000 µg/mL and the solubility ([3]; organic solvent or mixture, MIBK, 50° C., read-out: Solubility) was under 2000 µg/mL. It also gave a solubility ([3]; organic solvent or mixture, MTBE, 25° C., read-out: Solubility) of under 2000 µg/mL, a solubility ([3]; organic solvent or mixture, MTBE, 50° C., read-out: Solubility) of under 2000 µg/mL and a solubility ([3]; organic solvent or mixture, MeOH, 25° C., read-out: Solubility) of under 2000 µg/mL. The solubility ([3]; organic solvent or mixture, MeOH, 50° C., read-out: Solubility) was 2000 to 3000 µg/mL, the solubility ([3]; organic solvent or mixture, NMP, 25° C., read-out: Solubility) was 156000 to 208000 µg/mL and the solubility ([3]; organic solvent or mixture, NMP, 50° C., read-out: Solubility) was 202000 to 304000 µg/mL. For the same compound, the solubility ([3]; organic solvent or mixture, THF, 25° C., read-out: Solubility) was under 2000 µg/mL, the solubility ([3]; organic solvent or mixture, THF, 50° C., read-out: Solubility) was under 2000 µg/mL and the solubility ([3]; organic solvent or mixture, Toluene, 25° C., read-out: Solubility) was under 2000 µg/mL. For the same compound, the solubility ([3]; organic solvent or mixture, Toluene, 50° C., read-out: Solubility) was under 2000 µg/mL, the solubility ([3]; organic solvent or mixture, iPrOAc, 25° C., read-out: Solubility) was under 2000 µg/mL and the solubility ([3]; organic solvent or mixture, iPrOAc, 50° C., read-out: Solubility) was under 2000 µg/mL. The solubility ([3]; organic solvent or mixture, in DMF, NMP, DMSO and acetic acid/water (1:1 (v:v)), read-out: Solubility (excellent)) was at least 150000 µg/mL, the solubility ([3]; organic solvent or mixture, in methanol, ethanol, isopropanol, 1-butanol, acetonitrile, acetone, MEK, MIBK, ethyl acetate, isopropyl acetate, MTBE, tetrahydrofuran, chloroform, toluene, heptane and water, read-out: Solubility (low)) was at most 5000 µg/mL and the solubility ([3]; Water, 25° C., read-out: Solubility) was under 2000 µg/mL. The solubility ([3]; Water, 50° C., read-out: Solubility) was under 2000 µg/mL, the Cmax ([4]; 10 mg/kg) was 3154.8 ng/mL and the t½ ([4]; 10 mg/kg) was 4.0 h. The AUClast ([4]; 10 mg/kg, listed as sulfate of the compound of Chemical Formula 1, 10 mg/kg) was 11499.35 ng·h/mL and the “Pharmacokinetic test, t½” value ([4]; summary Table 9) was 4 h.
